Test results reported in ChEMBL document CHEMBL1201862, “PubChem BioAssay data set” (2004).
Active and inactive are the calls of the source.

Columns and labels:
[1] = IGROV1 cell killing – plate reader, dry powder samples, PAX8 inhibitor project, dose response (AID 743043); format: functional, cell-based; settings: IGROV-1
[2] = reduced cellular PGC1a acetyl-lysine signal – cell-based, cherry-picked samples, dose response (AID 720514); format: functional;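 also: potency may reflect raised or lowered acetylation signal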
[3] = target: Paired box protein Pax-8 (Homo sapiens, UniProt Q06710); assay: PAX8 transcriptional activity inhibition in RMG-I – RMG-I cells, luciferase, cherry-pick, dose response (AID 687027); format: functional, cell-based;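 also: luciferase reporter driven by Pax8 target thyroperoxidase promoter measured by SteadyGlo luminescence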
Chain of Paired box protein Pax-8 (Q06710 whole entry): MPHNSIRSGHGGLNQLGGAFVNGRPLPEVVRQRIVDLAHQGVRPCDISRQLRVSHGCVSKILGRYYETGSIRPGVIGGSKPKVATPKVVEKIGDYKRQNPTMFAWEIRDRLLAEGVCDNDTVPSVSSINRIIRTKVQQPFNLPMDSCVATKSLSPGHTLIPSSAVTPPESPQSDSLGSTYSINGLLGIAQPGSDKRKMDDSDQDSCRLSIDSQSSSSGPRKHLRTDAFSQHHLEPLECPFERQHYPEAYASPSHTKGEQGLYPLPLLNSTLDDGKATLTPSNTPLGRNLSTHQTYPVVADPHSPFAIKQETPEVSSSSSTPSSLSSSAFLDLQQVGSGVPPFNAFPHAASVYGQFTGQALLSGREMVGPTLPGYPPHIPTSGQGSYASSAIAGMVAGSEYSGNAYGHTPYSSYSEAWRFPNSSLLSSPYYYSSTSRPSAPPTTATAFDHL

[4] = OVCAR-3 cell viability loss – plate reader, dry powder samples, PAX8 inhibitor project, dose response (AID 743044); format: functional, cell-based
[5] = OVCAR8 cell viability loss – plate reader, dry powder samples, PAX8 project, dose response (AID 743197); format: functional, cell-based; settings: OVCAR-8
[6] = toxicity toward immortalized ovarian surface epithelium – cell-based, plate reader, dry powder samples, cytotoxicity control for PAX8 inhibitor project, dose response (AID 743045); format: functional
[7] = Luminescence Cell-Based Dose Response to Identify Activators of Luciferase Translation or Activity in H4-C Neuroglioblastoma Cells. [Related pubchem assays: 1829 (Project Summary), 1814 (Primary HTS)]; format: functional
[8] = Luminescence Cell-Based Dose Confirmation to Identify Activators of 5'UTR Stem-Loop Driven Alpha-Synuclein mRNA Translation in H4 Neuroglioblastoma Cells. [Related pubchem assays: 1829 (Project Summary), 1814 (Primary HTS)]; format: functional
[9] = Luminescence Cell-Based Dose Response HTS to Identify Activators of Luciferase Translation or Activity in H4 […] Cells. [Related pubchem assays: 1829 (Project Summary), 1814 (Primary HTS)]; format: functional
[10] = Luminescence Cell-Based Dose Confirmation HTS to Identify Activators of 5'UTR Stem-Loop Driven Alpha-Synuclein mRNA Translation in H4 Neuroglioblastoma Cells. [Related pubchem assays: 1829 (Project Summary), 1814 (Primary HTS)]; format: functional
[11] = Luminescence Cell-Based Dose Response to Identify Activators of 5'UTR Stem-Loop Driven Prion Protein mRNA Translation in H4-C Neuroglioblastoma Cells. [Related pubchem assays: 1829 (Project Summary), 1814 (Primary HTS)]; format: functional
[12] = target: Estrogen receptor beta (Homo sapiens, UniProt Q92731);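 also: recombinant ER-beta bound to coactivator SRC1 peptide in presence of estradiol agonist; inhibitors block coactivator peptide binding and lower the FRET signal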
Chain of Estrogen receptor beta (Q92731 whole entry): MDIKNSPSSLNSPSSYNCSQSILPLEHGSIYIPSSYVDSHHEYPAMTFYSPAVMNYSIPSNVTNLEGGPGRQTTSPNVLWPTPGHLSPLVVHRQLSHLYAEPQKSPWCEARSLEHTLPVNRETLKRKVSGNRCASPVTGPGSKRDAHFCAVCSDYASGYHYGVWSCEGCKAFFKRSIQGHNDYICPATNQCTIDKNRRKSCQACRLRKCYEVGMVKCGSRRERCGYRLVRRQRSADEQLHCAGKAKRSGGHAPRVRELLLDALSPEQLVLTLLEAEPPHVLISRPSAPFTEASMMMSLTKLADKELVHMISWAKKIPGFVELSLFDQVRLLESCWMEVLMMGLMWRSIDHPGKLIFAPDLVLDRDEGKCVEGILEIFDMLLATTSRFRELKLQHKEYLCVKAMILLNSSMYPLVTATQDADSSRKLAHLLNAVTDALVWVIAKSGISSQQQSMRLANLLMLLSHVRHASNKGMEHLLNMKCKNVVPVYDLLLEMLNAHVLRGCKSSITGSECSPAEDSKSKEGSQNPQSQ

[13] = target: T1, Protein Tat (Human immunodeficiency virus type 1 group M subtype B (isolate HXB2)(HIV-1), UniProt P04608); format: functional;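 also: tat binding to TAR RNA read out by fluorescence polarization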
T1 sequence (P04608 whole entry): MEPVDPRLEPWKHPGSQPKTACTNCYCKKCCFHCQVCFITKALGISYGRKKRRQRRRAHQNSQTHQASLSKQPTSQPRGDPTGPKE

[14] = viability loss in Vero cells – cytotoxicity control for Vif-APOBEC3G degradation inhibitor project, dose response (AID 1117358); format: functional; settings: Vero
[15] = Luminescent dose response cell-based high throughput screening assay for inhibitors of the Janus kinase 2 mutant JAK2V617F. [Related pubchem assays: 1446 (Primary screen.), 1521 (Confirmation assay.), 1486 (Counter screen.)]; format: functional
[16] = target: Large T antigen (Simian virus 40, UniProt P03070); format: functional, Betapolyomavirus macacae;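 also: Confirmatory-stage PubChem screen for compounds that inhibit SV40 T antigen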
Chain of Large T antigen (P03070 whole entry): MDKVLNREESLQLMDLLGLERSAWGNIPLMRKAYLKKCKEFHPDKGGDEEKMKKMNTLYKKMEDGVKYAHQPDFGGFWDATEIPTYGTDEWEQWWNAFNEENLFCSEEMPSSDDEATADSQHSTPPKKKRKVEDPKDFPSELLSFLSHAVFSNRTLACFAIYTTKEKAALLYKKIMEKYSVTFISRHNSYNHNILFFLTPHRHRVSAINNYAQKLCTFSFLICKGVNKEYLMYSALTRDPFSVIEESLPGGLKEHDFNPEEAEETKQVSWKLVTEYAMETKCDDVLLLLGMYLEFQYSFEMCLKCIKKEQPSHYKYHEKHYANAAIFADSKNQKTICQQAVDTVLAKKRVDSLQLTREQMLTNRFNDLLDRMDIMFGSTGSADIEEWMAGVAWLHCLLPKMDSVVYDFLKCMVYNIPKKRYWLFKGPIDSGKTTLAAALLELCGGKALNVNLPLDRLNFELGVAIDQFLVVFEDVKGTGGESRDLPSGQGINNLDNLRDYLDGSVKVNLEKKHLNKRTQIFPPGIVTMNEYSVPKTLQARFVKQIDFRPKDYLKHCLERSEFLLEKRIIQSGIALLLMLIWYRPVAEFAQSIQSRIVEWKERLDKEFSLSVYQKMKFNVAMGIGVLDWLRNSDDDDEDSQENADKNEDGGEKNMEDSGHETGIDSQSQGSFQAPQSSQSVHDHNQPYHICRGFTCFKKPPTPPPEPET

[17] = HEK-293T cell viability reduction – luminescence, B-cell screen hits, cytotoxicity control for BCR NF-kB inhibitor project, dose response (AID 489021); format: functional, cell-based;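 also: HEK-293T cells carrying an NF-kB luciferase reporter; cells exposed to compound for about 14 hours before viability readout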
[18] = Luminescence-based dose response cell-based high throughput screening assay for cytotoxic compounds using the IEC-6 intestinal epithelial cell line. [Related pubchem assays: 1858 (Summary AID.), 1825 (Counterscreen.), 1907 (Confirmation screen.)]; format: functional
[19] = target: Heat shock protein HSP 90-alpha (Homo sapiens, UniProt P07900); assay: Luminescence-based dose response biochemical high throughput screening assay for inhibitors of the Heat Shock Protein 90 (HSP90). [Related pubchem assays: 1831 (Summary AID.), 1846 (Confirmation screen.), 1789 (Primary screen.)]
[20] = target: T2, Hexokinase HKDC1 (Homo sapiens, UniProt Q2TB90); assay: inhibition of HKDC1 glucose phosphorylation – biochemical, W721R variant, dose response (AID 504729); format: functional
T2 sequence (Q2TB90 whole entry): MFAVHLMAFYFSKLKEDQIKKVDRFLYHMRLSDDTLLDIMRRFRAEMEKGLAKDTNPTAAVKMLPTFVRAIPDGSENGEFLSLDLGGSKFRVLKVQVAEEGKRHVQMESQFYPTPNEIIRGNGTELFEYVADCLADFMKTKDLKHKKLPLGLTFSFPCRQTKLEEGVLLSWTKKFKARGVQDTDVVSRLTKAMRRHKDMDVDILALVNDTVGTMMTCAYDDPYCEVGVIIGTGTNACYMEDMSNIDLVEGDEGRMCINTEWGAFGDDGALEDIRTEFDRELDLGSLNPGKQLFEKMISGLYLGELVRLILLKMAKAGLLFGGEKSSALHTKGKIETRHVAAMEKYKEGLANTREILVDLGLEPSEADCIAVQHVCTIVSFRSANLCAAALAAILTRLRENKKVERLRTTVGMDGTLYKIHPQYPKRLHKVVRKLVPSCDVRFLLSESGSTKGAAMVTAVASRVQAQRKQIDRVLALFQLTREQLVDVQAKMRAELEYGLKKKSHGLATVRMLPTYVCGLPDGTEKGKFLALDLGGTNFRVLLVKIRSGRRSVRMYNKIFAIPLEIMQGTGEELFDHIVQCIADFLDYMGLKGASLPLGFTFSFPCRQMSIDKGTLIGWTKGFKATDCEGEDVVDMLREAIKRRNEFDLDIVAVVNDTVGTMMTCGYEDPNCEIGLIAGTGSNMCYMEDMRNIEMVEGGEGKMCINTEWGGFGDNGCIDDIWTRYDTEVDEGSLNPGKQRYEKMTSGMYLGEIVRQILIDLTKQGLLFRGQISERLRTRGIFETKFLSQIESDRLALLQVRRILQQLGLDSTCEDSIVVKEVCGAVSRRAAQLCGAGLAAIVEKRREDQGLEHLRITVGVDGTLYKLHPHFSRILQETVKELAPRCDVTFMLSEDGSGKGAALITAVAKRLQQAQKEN

[21] = target: T3, Tyrosyl-DNA phosphodiesterase 2 (Homo sapiens, UniProt O95551); assay: potency against TDP2 phosphodiesterase activity – biochemical, epi absorbance, IC50, dose response (AID 743297)
T3 sequence (O95551 whole entry): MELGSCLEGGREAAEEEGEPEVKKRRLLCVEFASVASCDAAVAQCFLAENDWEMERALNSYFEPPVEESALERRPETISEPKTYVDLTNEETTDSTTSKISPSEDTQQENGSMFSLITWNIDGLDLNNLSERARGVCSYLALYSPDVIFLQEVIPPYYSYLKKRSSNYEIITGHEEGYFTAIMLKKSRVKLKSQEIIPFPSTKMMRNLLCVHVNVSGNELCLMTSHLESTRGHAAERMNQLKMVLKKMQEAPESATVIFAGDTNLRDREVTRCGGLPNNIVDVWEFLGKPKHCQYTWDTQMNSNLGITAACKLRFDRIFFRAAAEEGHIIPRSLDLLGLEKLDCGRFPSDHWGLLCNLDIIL

[22] = test system: Vero; assay: viability of Vero cells under compound – cytotoxicity control for flavivirus capping enzyme inhibitors (AID 588742); format: functional; settings: Chlorocebus sabaeus
[23] = target: Genome polyprotein (dengue virus type 2, UniProt P29990); assay: flavivirus cap methylation enzyme inhibition – biochemical, confirmation dose response, primary screen (AID 588689); format: functional
Chain of Genome polyprotein (P29990 2492-3391 limits assumed): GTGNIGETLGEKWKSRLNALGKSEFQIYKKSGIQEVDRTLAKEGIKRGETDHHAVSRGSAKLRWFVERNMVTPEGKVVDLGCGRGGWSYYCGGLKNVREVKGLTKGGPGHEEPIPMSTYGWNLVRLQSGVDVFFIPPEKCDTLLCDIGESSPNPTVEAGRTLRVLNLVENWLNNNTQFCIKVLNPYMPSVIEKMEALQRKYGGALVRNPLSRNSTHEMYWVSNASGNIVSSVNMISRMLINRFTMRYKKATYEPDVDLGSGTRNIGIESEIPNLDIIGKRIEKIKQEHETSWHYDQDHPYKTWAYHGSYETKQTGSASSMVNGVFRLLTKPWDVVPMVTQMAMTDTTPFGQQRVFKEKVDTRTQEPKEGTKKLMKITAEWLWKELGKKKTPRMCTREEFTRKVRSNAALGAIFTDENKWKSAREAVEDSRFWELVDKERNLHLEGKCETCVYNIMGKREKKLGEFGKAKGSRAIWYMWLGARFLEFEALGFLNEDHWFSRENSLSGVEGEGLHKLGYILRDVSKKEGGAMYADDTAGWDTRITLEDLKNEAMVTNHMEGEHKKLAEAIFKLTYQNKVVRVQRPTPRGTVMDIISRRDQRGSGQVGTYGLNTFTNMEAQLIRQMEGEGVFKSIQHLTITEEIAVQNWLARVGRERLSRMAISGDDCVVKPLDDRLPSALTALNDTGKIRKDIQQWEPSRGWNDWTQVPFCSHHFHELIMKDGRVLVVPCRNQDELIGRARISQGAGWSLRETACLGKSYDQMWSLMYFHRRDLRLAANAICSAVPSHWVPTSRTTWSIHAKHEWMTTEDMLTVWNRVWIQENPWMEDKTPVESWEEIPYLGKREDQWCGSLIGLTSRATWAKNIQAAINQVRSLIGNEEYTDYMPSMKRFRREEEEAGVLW

[24] = test system: H4; assay: Luminescence Cell-Based Dose Response HTS to Identify Activators of 5'UTR Stem-Loop Driven Prion Protein mRNA Translation in H4 Neuroglioblastoma Cells. [Related pubchem assays: 1829 (Project Summary), 1814 (Primary HTS)]; format: functional; settings: Homo sapiens

O=C(Nc1ccc(C(F)(F)F)cc1)N1C[C@@H]2N[C@H](C1)[C@H]2c1ccc(-c2ccccc2)cc1
AC50 [1]: 27.2 µM (active)
AC50 [2]: 5.12 µM (active)
AC50 [3]: 8.55 µM (active)
AC50 [4]: 17.7 µM (active)
AC50 [5]: 41 µM (active)
AC50 [6]: 49.8 µM (active)

Cc1nn(Cc2ccccc2)c(Cl)c1C(=O)NCCc1ccccc1
EC50 [7]: 0.367 µM (active)
EC50 [8]: 0.24 µM (active)
EC50 [9]: < 0.1 µM (active)
EC50 [10]: < 0.1 µM (active)
EC50 [11]: 1.07 µM (active)

C[C@@H]1CCCCO[C@H](CN(C)C(=O)NC2CCCCC2)[C@@H](C)CN([C@@H](C)CO)C(=O)c2cc(NC(=O)NC3CCCCC3)ccc2O1
AC50 [2]: 26 µM (active)

Cc1occc1C(=O)NCCCc1ccccc1
IC50 [12]: > 50 µM (not active)

COc1ccc(OC)c(C2C(C(=O)Nc3ccc(F)cc3)=C(C)Nc3nc(CCCO)nn32)c1 (stereo not given)
IC50 [13]: > 100 µM (active)

Cc1ccc[n+](-c2[n-]c(=O)sc2C=NNC(=O)c2ccccc2O)c1
CC50 [14]: > 40 µM (active)

Cc1noc(C)c1COC(=O)c1cccc(S(=O)(=O)N2CCCCCC2)c1
CC50 [14]: > 40 µM (active)

CC(C)c1ccc(/C=C/C(=O)N2CCc3ccccc3C2)cc1
CC50 [14]: > 40 µM (active)

C#CCSc1nsc(SCC#C)c1C#N
IC50 [15]: 1.1 µM (active)

O=S(=O)(c1cccs1)N1CCN(c2ccc(O)cc2)CC1
IC50 [16]: 6.66 µM (active)
IC50 [15]: 2.84 µM (active)

Cc1ccc(Nc2nc(N3CCOCC3)nc(N3CCOCC3)n2)cc1C
IC50 [17]: > 80 µM (inactive)
IC50 [18]: 1.47 µM (active)

COC(=O)c1ccccc1OCCCOc1ccc(C)cc1OC
IC50 [19]: 0.00405 µM (active)

Cc1cccc(-n2c3nc(=O)[nH]c(=O)c-3cc3cc([N+](=O)[O-])ccc32)c1
IC50 [20]: 10.4 µM (active)
IC50 [21]: > 128 µM (inactive)
IC50 [16]: > 100 µM (active)
CC50 [22]: 24.8 µM (active)
IC50 [23]: 32.7 µM (active)

COc1ccc(C(=O)Nc2cnc3ccccn3c2=O)cc1
EC50 [7]: 0.53 µM (active)
EC50 [8]: 0.36 µM (active)
EC50 [24]: 38.8 µM (active)
EC50 [9]: < 0.1 µM (active)
EC50 [10]: 0.129 µM (active)
EC50 [11]: 0.755 µM (active)

CC(C)(C)c1ccc(C(=O)CSc2nc[nH]n2)cc1
EC50 [7]: 1.09 µM (active)
EC50 [8]: 0.58 µM (active)
EC50 [24]: 0.127 µM (active)
EC50 [9]: 88.1 µM (active)
EC50 [10]: 3.34 µM (active)
EC50 [11]: 1.13 µM (active)
